Reference: US20130123201A1, “MODULATION OF CYTOKINE-INDUCED CHRONIC INFLAMMATORY RESPONSES” (UNIVERSITY OF MANITOBA, priority 2010, published 2013)
No end group written: not given here.

Assays:
Format in all cases: cell-based
[1] = test system: human T-cell Jurkat cell line; test: Cellular cytotoxicity by LDH release; conditions: human T-cell Jurkat cells
Method: (§1) Where indicated the THP-1 cells were differentiated to plastic-adherent macrophage-like cells by treatment with phorbol 12-myristate 13-acetate (PMA; Sigma-Aldrich Canada, Oakville ON) as taught by Mookherjee et al. (2006). A rabbit synoviocyte cell line HIG-82 (ATCC® CRL-1832) was cultured in Ham's F-12 growth medium containing glutamine supplemented with sodium pyruvate (referred to as complete F-12 media henceforth), containing 10% (v/v) FBS in a humidified incubator at 37° C. and 5% CO2. Confluent HIG-82 cells were trypsinized with 1:3 dilution of 0.5% trypsin-EDTA in Hanks' balanced salt solution. Cellular cytotoxicity was evaluated after AHA labeling and upon stimulation with the various cytokines for all the cell types used in this study by monitoring the release of lactate dehydrogenase (LDH) employing a colorimetric detection kit (Roche Diagnostics, Laval, QC, Canada). Recombinant human cytokines TNF-α and IL-1β were obtained from eBioscience, Inc (San Diego, Calif., USA).

[2] = test system: rabbit synovial fibroblast HIG-82 cell line; test: Cellular cytotoxicity by LDH release; conditions: HIG-82 synovial fibroblast cell line, within 4 hr
Method: as §1

[3] = test system: human monocytic THP-1 cells; test: Cellular cytotoxicity by LDH release
Method: Human monocytic THP-1 (ATCC® TIB-202; ATCC is a registered trademark of the American Type Culture Collection, Manassas, Va., USA) cells were cultured in RPMI-1640 media containing 2 mM L-glutamine and 1 mM sodium pyruvate (referred to as complete RPMI media from here on), supplemented with 10% (v/v) FBS, and maintained in a humidified incubator at 37° C. and 5% CO2. […] Cellular cytotoxicity was evaluated after 24 hr stimulation with the various stimulants used in this study by monitoring the release of lactate dehydrogenase (LDH) employing a colorimetric detection kit (Roche Diagnostics, Laval, QC, Canada) Human monocytic THP-1 (ATCC® TIB-202) cells and Jurkat T-cell line (ATCC® TIB-152) were cultured in RPMI-1640 media containing 2 mM L-glutamine and 1 mM sodium pyruvate, supplemented with 10% (v/v) FBS, and maintained in a humidified incubator at 37° C. and 5% CO2. […] Cellular cytotoxicity was evaluated after AHA labeling and upon stimulation with the various cytokines for all the cell types used in this study by monitoring the release of lactate dehydrogenase (LDH) employing a colorimetric detection kit (Roche Diagnostics, Laval, QC, Canada).

[4] = test system: Human macrophage-like THP-1 cells; test: ELISA of cytokine/chemokine production in THP-1 tissue culture supernatants; conditions: macrophage-like THP-1 cells, IL-32 20 ng/mL, 24 hr
Method: ELISA immunoassay: Tissue culture supernatants were centrifuged at 1500× g for 5-7 min to obtain cell-free samples and the aliquots were stored at −20° C. until further use. Production of chemokine Gro-α was monitored in the tissue culture supernatants by ELISA employing human Gro-α DuoSet (R&D Systems Inc.) as per the manufacturer's instructions. Production of cytokine TNF-α was monitored in the tissue culture supernatants using specific antibody pairs from eBioscience, Inc., and production of IL-8 was monitored using specific antibody pairs from R&D Systems, Inc., as per the manufacturer's instructions. The concentration of the cytokines or chemokines in the tissue culture supernatants was evaluated by establishing a standard curve with serial dilutions of the recombinant human cytokines or chemokines as required.
ELISA immunoassay: Tissue culture supernatants were centrifuged at 1500× g for 5-7 min to obtain cell-free samples and the aliquots were stored at −20° C. until further use. Production of chemokine Gro-α was monitored in the tissue culture supernatants by ELISA employing human Gro-α DuoSet (R&D Systems Inc.) per the manufacturer's instructions. Production of cytokine TNF-α was monitored in the tissue culture supernatants using specific antibody pairs from eBioscience, Inc., and production of IL-8 was monitored using specific antibody pairs from R&D Systems, Inc., per the manufacturers' instructions. The concentrations of the cytokines or chemokines in the tissue culture supernatants were evaluated by establishing a standard curve with serial dilutions of the recombinant human cytokines or chemokines as required.
Impact of cationic peptide LL-37 and its synthetic derivatives on IL-32-induced protein production: Human macrophage-like THP-1 cells were stimulated with IL-32 (20 ng/mL) in the presence and absence of cationic peptide LL-37, tissues culture supernatants were monitored for the production of pro-inflammatory cytokines TNF-α and IL-1β, and chemokines after 24 hr of stimulation. […] As LL-37 suppressed IL-32-mediated pro-inflammatory responses, we also evaluated the impact of LL-37 derived synthetic peptides. […] No studies to data have explored the impact of these peptides in the context of chronic inflammation. […] This provides the data that supports further investigation of these peptide candidates as potential therapeutics for diseases characterized by chronic inflammation.

human PBMC = test: ELISA of IL-32-induced TNF-α and IL-1β production in PBMC (ex-vivo); conditions: for Effect on IL-32-induced TNF-α production: p<0.05; for Effect on IL-32 induced pro-inflammatory protein production (FIG. 21 legend): peripheral blood mononuclear cells
From the text: In order to confirm these activities in a physiologically relevant system, we evaluated the impact of the peptide in an ex-vivo assay using human PBMC, because cells recruited from the circulation are a major component of inflammatory infiltrates. Venous blood was collected from healthy volunteers with informed consent in accordance to a protocol approved by the Institutional Review Board at the University of Manitoba. PBMC was isolated from blood following the teaching of Mookherjee et al. (2009, Systems biology evaluation of immune responses induced by human host defence peptide LL-37 in mononuclear cells. Mol. Biosyst. 5:483-496). PBMC were stimulated with chronic inflammatory cytokine IL-32 (20 ng/ml) in the presence and absence of 5 μM of peptides, LL-37 and its derivatives (Table 7) for 24 hr. The tissue culture supernatants were monitored for the production of pro-inflammatory cytokines TNF-α and IL-1β by ELISA. […] Results shown are an average of four independent biological experiments performed with cells isolated from blood of four different donors ±standard error.

[5] = test system: human monocytic THP-1 cells; test: AHA labeling, affinity purification and iTRAQ quantitative proteomics of nascent proteins; conditions: AHA-labeled THP-1 cells, cytokine 10 ng/ml, 4 hr, vs un-stimulated cells
Method: (§2) AHA labeling, biotin tagging of nascent proteins, and affinity purification: Cells were washed with warm D-PBS, and cultured in methionine-free, serum-free RPMI media at 37° C. 5% CO2 for 60 min. […] TC supernatants were monitored for the production of IL-8 by ELISA. Metabolic labeling of the cells with AHA reagent in the presence of the cytokine stimulants would result in induced nascent proteins with azide-bearing functional group, thus making them distinct from pool of pre-existing cellular proteins. Also these functional groups were further used to tag the nascent proteins with a biotin-alkyne reagent as follows. The cells were washed with D-PBS, followed by preparing cell lysates in lysis buffer containing 50 mM Tris-HCl, 1% SDS, 250 U/ml of benzonase nuclease and protease and phosphatase inhibitor cocktails (Sigma-Aldrich Canada Inc.). Total protein was estimated in the cell lysates using micro BCA analysis. Equivalent amount of total protein from each sample was acetone precipitated and then treated with Click-iT® Biotin-alkyne reagent (Invitrogen Canada Inc.) per the manufacturer's instructions. The biotin-alkyne reagent thus covalently coupled to the reactive azide group of the AHA-modified proteins was used to subsequently enrich the nascent proteins by affinity purification using Ultralink® Immobilized NeutrAvidin® resin (Ultralink and NeutrAvidin are registered trademarks of Pierce Biotechnology Inc, Rockford, Ill., USA), and the bound proteins were eluted using 6 M guanidinium hydrochloride.
Quantitative proteomics employing isobaric tag for relative and absolute quantitation (iTRAQ): Amine-modifying iTRAQ™ reagents multiplex kit (Applied Biosystems, Foster City, Calif., USA) was employed for relative quantitation of purified nascent proteins. Affinity purified eluates were acetone precipitated at −20° C. overnight. Proteins were dissolved in 20 μl of iTRAQ dissolution buffer (Applied Biosystems) and further processed as per the manufacturer's instructions. Briefly, proteins were reduced and the cysteines blocked using the reagents in kit, followed by digestion of the protein samples with provided trypsin solution overnight at 37° C. […] The contents from each of the iTRAQ reagent-labeled sample was combined together and processed for nanoflow liquid chromatography coupled to tandem mass spectrometry (LC-MS/MS).
The AHA-containing nascent proteins enriched by affinity purification were quantitated using isobaric iTRAQ quantitative proteomics reagents. This was done to identify and estimative the relative abundance of nascent proteins enriched in the cytokine-treated samples compared to un-stimulated cells. […] Samples from four independent experiments were individually examined by LC-MS/MS. Peptides identified with 95% confidence were selected for further analysis. The mass spectrometry data was analyzed using Global Proteome Machine (GPM-http://www.thegpm.org/).

[6] = test system: Human THP-1 monocytic cells; test: qRT-PCR kinetics of cytokine-induced gene expression of identified candidates
From the text: Quantitative real-time PCR (qRT-PCR): RNA was isolated using the Qiagen RNeasy® kit as per the manufacturer's instructions (Rneasy is a registered trademark of Qiagen GmbH, Hilden, Fed. Rep. Germany). Gene expression was subsequently analyzed by qRT-PCR using SuperScript® III Platinum Two-Step qRT-PCR Kit with SYBR Green (SuperScript is a registered trademark of Invitrogen Corp., Carlsbad, Calif., USA), according to the manufacturer's instructions, in the ABI PRISM® 7300 sequence detection system (BI PRISM is a registered trademark of Applera Corp., Foster City, Calif., USA). Fold changes were calculated by the comparative Ct method as taught by Pfaffl (2001) after normalization with 18sRNA.

[7] = test system: AHA-labeled human monocytic THP-1 cells; test: ELISA of IL-8 production by AHA-labeled THP-1 cells; conditions: 10 ng/ml, 4 hr
Method: as §2, with “The biotin-alkyne reagent thus covalently coupled to the reactive azide group of the AHA-modified proteins was used to subsequently enrich the nascent proteins by affinity purification using Ultralink® Immobilized NeutrAvidin® resin (Ultralink and NeutrAvidin are registered trademarks of Pierce Biotechnology Inc, Rockford, Ill., USA), and the bound proteins were eluted using 6 M guanidinium hydrochloride.” left out

[8] = human PBMC, IL-32 20 ng/ml, 5 μM peptide, 24 hr

## [N-]=[N+]=NCC[C@H](N)C(=O)O [AHA, L-azidohomoalanine]
[1]
  Cytotoxicity of AHA labeling (LDH release): not cytotoxic
[2]
  Cytotoxicity of AHA labeling (LDH release): cytotoxic
[3]; human monocytic THP-1 cells
  Cytotoxicity of AHA labeling (LDH release): not cytotoxic

## IG-19: LL-37-derived synthetic peptide, SEQ ID NO: 23, IGKEFKRIVQRIKDFLRNL-NH2
[4]
  Effect on IL-32-induced IL-1β production: significantly suppressed
  Effect on IL-32-induced TNF-α production: significantly suppressed
  Effect on IL-32-induced chemokine production (IL-8, GROα): did not completely neutralize
Human PBMC; [8]
  Effect on IL-32-induced IL-1β production: neutralized
  Effect on IL-32-induced TNF-α production: neutralized
Human PBMC
  Effect on IL-32 induced pro-inflammatory protein production (FIG. 21 legend): suppression

## IG-25: LL-37-derived synthetic peptide, SEQ ID NO: 22, IGKEFKRIVQRIKDFLRNLVPRTES-NH2
[4]
  Effect on IL-32-induced IL-1β production: significantly suppressed
  Effect on IL-32-induced TNF-α production: significantly suppressed
  Effect on IL-32-induced chemokine production (IL-8, GROα): did not completely neutralize
Human PBMC; [8]
  Suppression of IL-32-induced TNF-α production: > 90%
  Effect on IL-32-induced TNF-α production: neutralized
Human PBMC
  Effect on IL-32 induced pro-inflammatory protein production (FIG. 21 legend): suppression

## IL-1β: Recombinant human cytokine IL-1β from eBioscience, used as stimulant
[5]
  Fold Change of nascent protein AIFM1: 1.2 fold
  Fold Change of nascent protein ALDOA: 1.5 fold
  Fold Change of nascent protein CALR: 1.0 fold
  Fold Change of nascent protein CAP1: 1.9 fold
  Fold Change of nascent protein CTPS: 1.5 fold
  Fold Change of nascent protein DDX17: 2.2 fold
  Fold Change of nascent protein EIFA3: 1.2 fold
  Fold Change of nascent protein HMGN1: 1.5 fold
  Fold Change of nascent protein HSPA4: 1.1 fold
  Fold Change of nascent protein LCP1: 1.5 fold
  Fold Change of nascent protein PRTN3: 0.8 fold
  Fold Change of nascent protein PSME2: 2.3 fold
  Fold Change of nascent protein PYGL: 1.7 fold
  Fold Change of nascent protein RAB14: 1.2 fold
  Fold Change of nascent protein SEC22B: 1.6 fold
  Fold Change of nascent protein VDAC3: 1.1 fold
[3]; AHA-labeled THP-1 cells, cytokine 10 ng/ml, 4 hr, data not shown
  Cytotoxicity of cytokine treatment (LDH release): not cytotoxic
[6]
  Up-regulation of gene expression of PYGL: 1.5 fold
[6]; p≦0.01
  Up-regulation of gene expression of RAB14 and Eifa3: ≥ 1.5 fold
[7]
  IL-8 production upon IL-1β stimulation compared to cells stimulated with TNF-α: more than 2 fold
[7]; p<0.001
  Production of IL-8: significant

## RK-25: LL-37-derived synthetic peptide, SEQ ID NO: 24, RKSKEKIGKEFKRIVQRIKDFLRNL-NH2
Human PBMC
  Effect on IL-32 induced pro-inflammatory protein production (FIG. 21 legend): suppression
